Laboratory results published in PubChem BioAssay AID328 (DTP/NCI, 2004).
Several values for one entry are separate records, joined by “and”; a condition that tells them apart may be missing. Identical values can stand only once. Inconclusive results and toxic doses are left out.

System: BDF1 mice, P388 leukemia ip, median survival T/C
Experiment: NCI In Vivo Anticancer Drug Screen. Data for tumor model P388 Leukemia (intraperitoneal) in B6D2F1 (BDF1) mice
Settings: endpoint: median survival time, higher = longer survival
Outline: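 Mice carrying the transplantable tumour receive compound or vehicle. Survival is followed in each arm, and the treated measure is divided by the vehicle measure.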

[1] = dose: 25.0 mg/kg/injection, schedule: Q04DX003 (ip), vehicle: Klucel (hydroxypropylcellulose) (HPC)
[2] = dose: 50.0 mg/kg/injection, schedule: Q04DX003 (ip), vehicle: Klucel (hydroxypropylcellulose) (HPC)
[3] = dose: 100.0 mg/kg/injection, schedule: Q04DX003 (ip), vehicle: saline with Tween-80
[4] = dose: 50.0 mg/kg/injection, schedule: Q01DX009 (ip), vehicle: saline with Tween-80
[5] = dose: 100.0 mg/kg/injection, schedule: Q01DX009 (ip), vehicle: saline with Tween-80
[6] = dose: 200.0 mg/kg/injection, schedule: Q01DX009 (ip), vehicle: saline with Tween-80
[7] = dose: 200.0 mg/kg/injection, schedule: Q04DX003 (ip), vehicle: saline with Tween-80
[8] = dose: 400.0 mg/kg/injection, schedule: Q04DX003 (ip), vehicle: saline with Tween-80
[9] = dose: 25.0 mg/kg/injection, schedule: Q01DX009 (ip), vehicle: Klucel (hydroxypropylcellulose) (HPC)

COC(=O)/C=C/c1cccnc1
T/C [1]: 100 % of control | T/C [2]: 90 % of control | T/C (dose: 100.0 mg/kg/injection, schedule: Q04DX003 (ip), vehicle: Klucel (hydroxypropylcellulose) (HPC)): 95 % of control | T/C (dose: 200.0 mg/kg/injection, schedule: Q04DX003 (ip), vehicle: Klucel (hydroxypropylcellulose) (HPC)): 90 % of control

CSc1nc(C)c(Br)c(Sc2nc(N)nc3nc[nH]c23)n1
T/C (dose: 66.0 mg/kg/injection, schedule: Q04DX003 (ip), vehicle: saline with Tween-80): 154 % of control | T/C [3]: 150 % of control | T/C (dose: 150.0 mg/kg/injection, schedule: Q04DX003 (ip), vehicle: saline with Tween-80): 150 % of control

OCc1ccccc1Sc1ccccc1CO
T/C [4]: 91 % of control | T/C [5]: 100 % of control | T/C [6]: 99 % of control

COc1cc(-c2cc(=O)c3c(OC)c(OC)c(OC)c(OC)c3o2)cc2c1OCO2
T/C (dose: 100.0 mg/kg/injection, schedule: Q04DX002 (ip), vehicle: Klucel (hydroxypropylcellulose) (HPC)): 97 % of control | T/C (dose: 200.0 mg/kg/injection, schedule: Q04DX002 (ip), vehicle: Klucel (hydroxypropylcellulose) (HPC)): 103 % of control | T/C (dose: 400.0 mg/kg/injection, schedule: Q04DX002 (ip), vehicle: Klucel (hydroxypropylcellulose) (HPC)): 97 % of control

CC(C#N)(Nc1ccccc1)c1ccco1 (stereo unspecified)
T/C (dose: 6.25 mg/kg/injection, schedule: Q04DX003 (ip), vehicle: other): 100 % of control | T/C (dose: 12.5 mg/kg/injection, schedule: Q04DX003 (ip), vehicle: other): 100 % of control | T/C (dose: 25.0 mg/kg/injection, schedule: Q04DX003 (ip), vehicle: other): 100 % of control

COC1OC2COC(c3ccccc3)OC2C2OC12 (stereo unspecified)
T/C (dose: 6.25 mg/kg/injection, schedule: Q01DX009 (ip), vehicle: saline with Tween-80): 109 % of control | T/C (dose: 12.5 mg/kg/injection, schedule: Q01DX009 (ip), vehicle: saline with Tween-80): 99 % of control | T/C (dose: 25.0 mg/kg/injection, schedule: Q01DX009 (ip), vehicle: saline with Tween-80): 96 % of control | T/C [4]: 100 % of control | T/C [3]: 109 % of control | T/C [7]: 100 % of control | T/C [8]: 100 % of control

C[N+](C)(C)c1ccc(/C=N\NC(=O)c2ccccc2)cc1
T/C (dose: 12.5 mg/kg/injection, schedule: Q01DX009 (ip), vehicle: Klucel (hydroxypropylcellulose) (HPC)): 105 % of control | T/C (dose: 12.5 mg/kg/injection, schedule: Q04DX003 (ip), vehicle: Klucel (hydroxypropylcellulose) (HPC)): 100 % of control | T/C [9]: 105 % of control | T/C [1]: 100 % of control | T/C (dose: 50.0 mg/kg/injection, schedule: Q01DX009 (ip), vehicle: Klucel (hydroxypropylcellulose) (HPC)): 105 % of control | T/C [2]: 95 % of control

CCOC(=O)c1cnc(SC)nc1NCc1ccccc1Cl
T/C (dose: 100.0 mg/kg/injection, schedule: Q01DX009 (ip), vehicle: Klucel (hydroxypropylcellulose) (HPC)): 100 % of control | T/C (dose: 200.0 mg/kg/injection, schedule: Q01DX009 (ip), vehicle: Klucel (hydroxypropylcellulose) (HPC)): 100 % of control | T/C (dose: 400.0 mg/kg/injection, schedule: Q01DX009 (ip), vehicle: Klucel (hydroxypropylcellulose) (HPC)): 100 % of control

Cc1nc(-c2ccc(N=Cc3ccc(N(CCOS(C)(=O)=O)CCOS(C)(=O)=O)cc3C)cc2)cs1
T/C (dose: 11.0 mg/kg/injection, schedule: Q01DX009 (ip), vehicle: Klucel (hydroxypropylcellulose) (HPC)): 247 % of control | T/C (dose: 16.5 mg/kg/injection, schedule: Q01DX009 (ip), vehicle: Klucel (hydroxypropylcellulose) (HPC)): 277 % of control and 176 % of control | T/C (dose: 24.75 mg/kg/injection, schedule: Q01DX009 (ip), vehicle: Klucel (hydroxypropylcellulose) (HPC)): 108 % of control | T/C [9]: 111 % of control

O=C1NS(=O)(=O)c2ccccc21
T/C [4]: 100 % of control | T/C [5]: 90 % of control | T/C [6]: 103 % of control

CCCN1CSC(=S)N(Cc2ccccc2)C1
T/C [5]: 90 % of control | T/C [3]: 95 % of control | T/C [6]: 100 % of control | T/C [7]: 95 % of control | T/C (dose: 400.0 mg/kg/injection, schedule: Q01DX009 (ip), vehicle: saline with Tween-80): 90 % of control | T/C [8]: 95 % of control

CCCCCCCCCCC(=O)CCCCCC
T/C (dose: 100.0 mg/kg/injection, schedule: Q04DX003 (ip), vehicle: other): 104 % of control | T/C (dose: 200.0 mg/kg/injection, schedule: Q04DX003 (ip), vehicle: other): 122 % of control | T/C (dose: 400.0 mg/kg/injection, schedule: Q04DX003 (ip), vehicle: other): 109 % of control

O=c1[nH]ccn2cnnc12
T/C (dose: 100.0 mg/kg/injection, schedule: Q01DX001 (ip), vehicle: saline with Tween-80): 95 % of control | T/C (dose: 200.0 mg/kg/injection, schedule: Q01DX001 (ip), vehicle: saline with Tween-80): 95 % of control | T/C (dose: 400.0 mg/kg/injection, schedule: Q01DX001 (ip), vehicle: saline with Tween-80): 104 % of control
